From US20070026073A1, “Amorphous efavirenz and the production thereof” (priority 2005, published 2007)

Assay: dissolution test, USP apparatus II (paddles), efavirenz released in water
Type: physicochemical
Conditions: 50 mg efavirenz equivalent in capsule with 15% croscarmellose sodium, 37° C., 100 rpm
Experimental: FIG. 9 is a plot of percent efavirenz released in water as a function of time for spray dried product using solvent and solvent/non-solvent methods in accordance with Example #8.
Initial release refers to the percent of drug released after 15 minutes in accordance with a standard dissolution test method. Extent of release refers to the percent of drug released after 240 minutes in accordance with the same standard dissolution test method.
Preferably these limits are obtained within about 120 minutes, more particularly within about 60 minutes and still more particularly within about 30 minutes. Dissolution profiles can be determined using USP apparatus II (paddles) (VK 7010®, Varian Inc.), with a bath temperature of 37° C. and a paddle speed of 100 rpm for 240 minutes.
3. The dissolution properties of both amorphous compositions were tested and compared to the crystalline drug form. An amount equivalent to 50 mg efavirenz was analyzed. Powders were hand-filled into size 1 hard gelatin capsules (Shinogi Qualicaps) with an additional 15% croscarmellose sodium (Ac-Di-Sol®, FMC BioPolymers). USP apparatus II (paddles) (VK 7010®, Varian Inc.) was used, with a bath temperature of 37° C. and a paddle speed of 100 rpm for 240 minutes. Both amorphous efavirenz compositions achieved faster rate of release and higher maximum aqueous concentration than the crystalline form (FIG. 9, Table 1). […]

Question: Which results are given for O=C1Nc2ccc(Cl)cc2[C@@](C#CC2CC2)(C(F)(F)F)O1 [crystalline efavirenz, (S)-6-chloro-4-(cyclopropylethynyl)-1,4-dihydro-4-(trifluoromethyl)-2H-3,1-benzoxazin-2-one]?
Answer: EFV released 15 min (15 min): 7%; EFV released 240 min (240 min): 13%
